Data published in ChEMBL document CHEMBL5528022, “Discovery of a brain-permeable bromodomain and extra terminal domain (BET) inhibitor with selectivity for BD1 for the treatment of multiple sclerosis” (Eur J Med Chem, 2024).
The source made the active and inactive calls. The rule behind the calls is not given here.

Experiments:
[1] = molecular target: T1, Bromodomain-containing protein 4 (Homo sapiens, UniProt O60885); assay: Binding affinity to BRD4 BD2 (unknown origin) expressed in Escherichia coli BL21 (DE3) at 1:1 protein:compound ratio by MST assay
[2] = Selectivity ratio of Kd for binding affinity to BRD4 BD2 (unknown origin) by MST assay to Kd for binding affinity to BRD4 BD1 (unknown origin) by MST assay
[3] = molecular target: T1, Bromodomain-containing protein 4; assay: Binding affinity to BRD4 BD1 (unknown origin) expressed in Escherichia coli BL21 (DE3) at 1:1 protein:compound ratio by MST assay
[4] = system: Mus musculus; assay: (§1) Anti-inflammatory activity in complete Freund's adjuvant/MOG (35 to 55 residues)/pertussis toxin-induced experimental autoimmune encephalomyelitis C57BL/6 mouse model assessed as change in cumulative scores at 30 mg/kg, ip bid administered 6 days post immunization and measured every 3 days for 28 days post immunization; type: functional, organism-based; conditions: time 22.0 day
[5] = system: Mus musculus; assay: as §1, with “reduction” for “change”, “IL-6 level” for “cumulative scores”; type: functional, organism-based; conditions: time 22.0 day
[6] = system: Mus musculus; assay: as §1, with “reduction” for “change”, “TNF-alpha level” for “cumulative scores”; type: functional, organism-based; conditions: time 22.0 day
[7] = system: Mus musculus; assay: Anti-inflammatory activity in complete Freund's adjuvant/MOG (35 to 55 residues)/pertussis toxin-induced experimental autoimmune encephalomyelitis C57BL/6 mouse model assessed as myelin density at 60 mg/kg, ip bid administered 6 days post immunization and measured every 3 days for 28 days post immunization by Luxol fast blue staining based bright field fluorescence microscopic analysis; type: functional, organism-based; conditions: time 22.0 day
[8] = system: Mus musculus; assay: as §1, with “reduction” for “change”, “clinical” for “cumulative”; type: functional, organism-based; conditions: time 22.0 day
[9] = system: Mus musculus; assay: Anti-inflammatory activity in complete Freund's adjuvant/MOG (35 to 55 residues)/pertussis toxin-induced experimental autoimmune encephalomyelitis C57BL/6 mouse model assessed as appearance of normal myelin structure at 30 mg/kg, ip bid administered 6 days post immunization and measured every 3 days for 28 days post immunization by Luxol fast blue staining based bright field fluorescence microscopic analysis; type: functional, organism-based; conditions: time 22.0 day
[10] = system: Microglia; assay: Antiinflammatory activity against LPS induced neonatal rat cerebral cortex microglia by immunofluorescence assay; type: functional, cell-based

Structure (SMILES)	Kd [1] [µM]	Selectivity ratio [2]	Kd [3] [µM]	Activity [4]	Activity [5]	Activity [6]	Activity [7]	Activity [8]	Activity [9]	Activity [10]
Cc1c(-c2cnccc2-c2ccnc3nc[nH]c23)cnn1C	178	73	2.4	–	–	–	–	–	–	–
Cc1nn(CC2CCCC2)c(C)c1-c1cncc(-c2ccnc3nc[nH]c23)c1	13	13	0.99	–	–	–	–	–	–	–
Cn1cc(-c2cncc(-c3ccnc4nc[nH]c34)c2)c(C(F)(F)F)n1	11	35	0.33	–	–	–	–	–	–	–
Cc1c(-c2cncc(-c3ccnc4nc[nH]c34)c2)cnn1C	31	46	0.69	–	–	–	–	–	–	–
COC(=O)/C=C/C(=O)OC	–	–	–	Active	Active	Active	Active	Active	Active	Active
Cc1nn(C)c(C)c1-c1cc2c(c(-c3ccnc4nc[nH]c34)c1)OCC2	3.1	17	0.18	–	–	–	–	–	–	–
